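Step 1: Grow cells in 96-well plates. Step 2: Expose to compound for 48 hours at 5 concentrations. Step 3: Interpolate endpoints linearly; if unreached, use highest concentration. The concentration for 50% growth inhibition is given as GI50.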 Calls of active or inactive are those of the source. No stated cut-off is given here; in the data, active = GI50 up to about 1.1 µM and inactive = higher.
Columns and labels:
Experiment in all cases: DTP human tumour cell line panel, 48 h
A498 = test system: A498
MOLT-4 = test system: MOLT-4
HCT-15 = test system: HCT-15
SK-MEL-2 = test system: SK-MEL-2
ACHN = test system: ACHN
DU-145 = test system: DU-145
SNB-19 = test system: SNB-19
CAKI-1 = test system: CAKI-1
SF-295 = test system: SF-295
SK-OV-3 = test system: SK-OV-3
NCI/ADR-RES = test system: NCI/ADR-RES
Hs-578T = test system: Hs-578T
HOP-92 = test system: HOP-92
SW-620 = test system: SW-620
HT-29 = test system: HT-29
K562 = test system: K562
SF-539 = test system: SF-539
SN12C = test system: SN12C
T47D = test system: T47D

Row | Structure (SMILES) | GI50 (A498) | GI50 (MOLT-4) | GI50 (HCT-15) [µM] | GI50 (SK-MEL-2) | GI50 (ACHN) | GI50 (DU-145) | GI50 (SNB-19) | GI50 (CAKI-1) | GI50 (SF-295) | GI50 (SK-OV-3) | GI50 (NCI/ADR-RES) | GI50 (Hs-578T) | GI50 (HOP-92) | GI50 (SW-620) | GI50 (HT-29) | GI50 (K562) | GI50 (SF-539) | GI50 (SN12C) | GI50 (T47D)
1 | N/C(=N\c1ccccc1Cl)c1ccccc1N | > 100 µM (inactive) | > 100 µM (inactive) | > 100 | > 100 µM (inactive) | > 100 µM (inactive) | > 100 µM (inactive) | > 100 µM (inactive) | > 100 µM (inactive) | > 100 µM (inactive) | > 100 µM (inactive) | > 100 µM (inactive) | > 100 µM (inactive) | 16 µM (inactive) | > 100 µM (inactive) | > 100 µM (inactive) | > 100 µM (inactive) | – | – | –
2 | Clc1cccc(/C=c2\nc(-c3ccccc3)n3c2nc2ccccc23)c1 | > 100 µM (inactive) | > 100 µM (inactive) | > 100 | > 100 µM (inactive) | – | > 100 µM (inactive) | > 100 µM (inactive) | > 100 µM (inactive) | 73.3 µM (inactive) | 57.5 µM (inactive) | > 100 µM (inactive) | 98.6 µM (inactive) | 4.38 µM (inactive) | > 100 µM (inactive) | > 100 µM (inactive) | > 100 µM (inactive) | 34.4 µM (inactive) | > 100 µM (inactive) | –
3 | CC(C)(C)OC(=O)NCCNC(=O)OCc1ccccc1 | – | > 100 µM (inactive) | > 100 | > 100 µM (inactive) | > 100 µM (inactive) | > 100 µM (inactive) | > 100 µM (inactive) | > 100 µM (inactive) | > 100 µM (inactive) | > 100 µM (inactive) | > 100 µM (inactive) | > 100 µM (inactive) | > 100 µM (inactive) | > 100 µM (inactive) | > 100 µM (inactive) | 85.9 µM (inactive) | > 100 µM (inactive) | > 100 µM (inactive) | –
4 | O=c1/c(=C\c2ccccc2)sc2n1C(c1ccccc1)C1(O)CCCCC1N=2 (stereo unspecified) | 36.8 µM (inactive) | 42.1 µM (inactive) | > 100 | 62.1 µM (inactive) | 87.9 µM (inactive) | – | > 100 µM (inactive) | > 100 µM (inactive) | – | – | – | – | – | > 100 µM (inactive) | > 100 µM (inactive) | 45.2 µM (inactive) | – | > 100 µM (inactive) | 51.5 µM (inactive)
5 | Cc1ccc(OCC2OC(n3cnc4c(Br)nc(Br)nc43)CC2Oc2ccc(C)cc2)cc1 (stereo unspecified) | 10.5 µM (inactive) | 2.1 µM (inactive) | 2.34 | 2.75 µM (inactive) | 2.32 µM (inactive) | 2.38 µM (inactive) | 7.31 µM (inactive) | 1.97 µM (inactive) | 8.49 µM (inactive) | 14.5 µM (inactive) | 9.59 µM (inactive) | – | 2.41 µM (inactive) | 2.56 µM (inactive) | 2.9 µM (inactive) | 2.57 µM (inactive) | 2.19 µM (inactive) | 3.37 µM (inactive) | 10.8 µM (inactive)
6 | CCN1CC2=C(OC(N)=C(C#N)C2c2ccc(Cl)cc2)/C(=C/c2ccc(Cl)cc2)C1 (stereo unspecified) | 16.5 µM (inactive) | 3.19 µM (inactive) | 45.8 | 27.6 µM (inactive) | 15.7 µM (inactive) | 42.4 µM (inactive) | 15 µM (inactive) | 10.2 µM (inactive) | 30.1 µM (inactive) | 18.7 µM (inactive) | 27.3 µM (inactive) | 22.6 µM (inactive) | 0.527 µM (active) | 44.1 µM (inactive) | 38.7 µM (inactive) | 8.81 µM (inactive) | – | – | –
7 | CCCNC(=S)N/N=C/c1cccc(C)n1 | 33 µM (inactive) | 16.8 µM (inactive) | 18.5 | 1.09 µM (active) | 13.4 µM (inactive) | – | – | – | 32.8 µM (inactive) | 46 µM (inactive) | 31 µM (inactive) | > 100 µM (inactive) | 49 µM (inactive) | – | 18 µM (inactive) | 31.7 µM (inactive) | 25.2 µM (inactive) | 29.2 µM (inactive) | 3.43 µM (inactive)

From ChEMBL document CHEMBL1201862, “PubChem BioAssay data set” (2004)
